In patent US20040044060A1, “Fungicidal mixture” (priority 2001, published 2004):

Tested on: Plasmopara viticola
Assay: Protective activity against peronospora of vines caused by Plasmopara viticola (potted vines, spray treatment)
Assay type: in vivo
Settings: individual active compound, vine leaves cv. Müller-Thurgau, untreated 75% infection
Experimental: The active compounds, separately or jointly, were formulated as a 10% emulsion in a mixture of 63% by weight of cyclohexanone and 27% by weight of emulsifier, and diluted with water to the desired concentration.
Evaluation was carried out by determining the infected leaf areas in percent. These percentages were converted into efficacies. The efficacy (W) was calculated as follows using Abbot's formula: […]
α corresponds to the fungal infection of the treated plants in % and β corresponds to the fungal infection of the untreated (control) plants in % An efficacy of 0 means that the infection level of the treated plants corresponds to that of the untreated control plants; an efficacy of 100 means that the treated plants were not infected.
The expected efficacies of the mixtures of the active compounds were determined using Colby's formula [R. S. Colby, Weeds 15, 20-22 (1967)] and compared with the observed efficacies.
E=x+y−x·y/100 Colby's formula: […]
E expected efficacy, expressed in % of the untreated control, when using the mixture of the active compounds A and B at the concentrations a and b x efficacy, expressed in % of the untreated control, when using active compound A at a concentration of a y efficacy, expressed in % of the untreated control, when using active compound B at a concentration of b.
Protective Activity Against peronospora vines Caused by Plasmopara viticola Leaves of potted vines of the cultivar “Müller-Thurgau” were sprayed to runoff point with an aqueous preparation of active compound which had been prepared from a stock solution comprising 10% of active compound, 85% of cyclohexanone and 5% of emulsifier. The next day, the undersides of the leaves were inoculated with an aqueous zoospore suspension of Plasmopara viticola. The vines were then initially placed in a water-vapor-saturated chamber at 24° C. for 48 hours and then in a greenhouse at 20-30° C. for 5 days. […] The extent to which the infection had developed on the undersides of the leaves was then determined visually.

Compound: Cc1ccc(-c2c(Cl)nc(C#N)n2S(=O)(=O)N(C)C)cc1 [Ia, cyazofamid]
- Efficacy in % of the untreated control (0.05 ppm in the spray liquor): 47%
- Efficacy in % of the untreated control (0.1 ppm in the spray liquor): 73%
- Efficacy in % of the untreated control (0.2 ppm in the spray liquor): 87%
